Laboratory results taken from patent publication US10166253B2, “Positively charged co-polymers for use as antimicrobial agents” (priority 2014, dated 2019).

Key:
[1] = tested on: S. aureus (Wood 46, NCTC 7121); assay: Antimicrobial susceptibility testing by flow cytometry-based assay (LIVE/DEAD BacLight, Syto9/PI); type: cell-based, Staphylococcus aureus; details: 30 minutes
Method: (§1) E. coli (strain NCTC 10418), P. aeruginosa (Strain PAO1) and S. aureus (Wood 46, NCTC 7121) cells were grown in 5 mL of Todd Hewitt Broth medium (THB; Sigma-Aldrich). Bacteria were cultivated at 37° C. for 15 h in a 15 mL tube to obtain late-log phase cultures. Bacterial cultures were pelleted at 3096 g for 10 minutes; the supernatant was discarded and bacteria were resuspended in phosphate-buffered saline (PBS) supplemented with 40 mg/ml human albumin to mimic chemical properties of blood. Bacteria were diluted to a standardized inoculum of 10^9 CFU/mL.
(§2) Bacteria were treated with GA, LL-37, Piperacillin/Tazobactam or Vancomycin in varying concentrations, i.e. 50, 25, 10 or 2 μg/ml, for 30 minutes. As a positive control, bacteria were treated with 7% isopropanol. Hereafter, bacteria were pelleted at 3096 g for 10 minutes; the supernatant was discarded and bacteria were resuspended in PBS. The antimicrobial effect was tested in a well-established and widely used flow cytometry-based assay (LIVE/DEAD® BacLight™ Bacterial Viability and Counting Kit (L34856), Molecular Probes/Invitrogen) according to manufacturer's manual.
(§3) For each bacteria, the flow cytometry-based assay was repeated four times.

[2] = tested on: S. aureus (Wood 46); assay: Transmission electron microscopy of treated bacteria; type: cell-based, Staphylococcus aureus
From the text: (§4) Transmission electron microscopy (TEM) was applied to examine the ultrastructural changes in P. aeruginosa (PAO1), S. aureus (Wood 46) and E. coli (NCTC 10418) induced after treatment with GA and LL-37. […] This critical alteration in the outer membrane of E. coli has previously been described as a disintegration of the outer membrane into micelles and vesicle-like structures (Meincken, M., D. L. Holroyd, and M. Rautenbach, Atomic force microscopy study of the effect of antimicrobial peptides on the cell envelope of Escherichia coli. Antimicrob Agents Chemother, 2005. 49(10): p. 4085-92). […] After incubation with LL-37 and GA, we found burst cells, but this observation was most significant after treatment with LL-37 (FIG. 9). Scale bar, 0.5 μm. Experiments were performed as 2 replicates.

[3] = tested on: E. coli (strain NCTC 10418); assay: Antimicrobial susceptibility testing by flow cytometry-based assay (LIVE/DEAD BacLight, Syto9/PI); type: cell-based, Escherichia coli
Method: as §1, §2, §3
Flow cytometry was used to determine the antimicrobial activity of GA and LL-37. The flow cytometry diagrams show the results after treatment with 50 μg/ml LL-37, GA, piperacillin/tazobactam, 7% isopropanol and the untreated control. […] This gating strategy was primarily applied to avoid counting beads in the upper right corner of the FS-SS. […] Thus, a two-color fluorescence assay of bacterial viability, including PI and Syto9 staining, was applied. Syto9 stains all bacteria in a population, i.e. those with intact and those with damaged membranes. In contrast, propidium iodide (PI) penetrates only bacteria with damaged membranes, thereby making quantification of bacterial viability possible.

[4] = tested on: P. aeruginosa (PAO1); assay: Transmission electron microscopy of treated bacteria; type: cell-based, Pseudomonas aeruginosa
From the text: as §4

[5] = tested on: P. aeruginosa (Strain PAO1); assay: Antimicrobial susceptibility testing by flow cytometry-based assay (LIVE/DEAD BacLight, Syto9/PI); type: cell-based
Method: as §1, §2, §3
The antibacterial effect of GA on the gram-negative strain P. aeruginosa was tested by carrying out an experiment as described in Example 1. […] Although the untreated control stained positive for PI, this seemed to be explained by the capability of intact P. aeruginosa to secrete large quantities of DNA to the extracellular milieu.

[6] = tested on: P. aeruginosa (PAO1); assay: Antimicrobial activity in human serum and plasma (flow cytometry, PI/Syto9); type: cell-based, Pseudomonas aeruginosa; details: P. aeruginosa PAO1 ~10^8 cells/ml
From the text: It has been reported that the antimicrobial activity of antimicrobial peptides are inhibited by their binding to different factors in human plasma (Wang, Y., et al., Apolipoprotein A-I binds and inhibits the human antibacterial/cytotoxic peptide LL-37. J Biol Chem, 1998. 273(50): p. 33115-8), serum and is influenced by pH and ion composition (Johansson, J., et al., Conformation-dependent antibacterial activity of the naturally occurring human peptide LL-37. J Biol Chem, 1998. 273(6): p. 3718-24). To investigate the potential of GA for systemic application, bacterial isolates of P. aeruginosa (PAO1, ˜10^8 cells/ml) were incubated with increasing concentrations of GA and compared to LL-37. Bacterial survival and enumeration was evaluated by a flow cytometry bead standard and stained with propidium iodide and Syto9 following procedures as previously described above in the antimicrobial susceptibility testing by flow cytometry-based assay. […] All experiments were performed as four replicates.

[7] = tested on: E. coli (NCTC 10418); assay: Transmission electron microscopy of treated bacteria; type: cell-based, Escherichia coli
From the text: as §4

[8] = within the 30 minutes of treatment
[9] = positive control, 7% isopropanol

CC[C@H](C)[C@H](NC(=O)[C@H](CCCCN)NC(=O)[C@H](CCC(=O)O)NC(=O)[C@H](CCCCN)NC(=O)[C@H](CO)NC(=O)[C@H](CCCCN)NC(=O)[C@H](CCCNC(=N)N)NC(=O)[C@H](Cc1ccccc1)NC(=O)[C@H](Cc1ccccc1)NC(=O)[C@H](CC(=O)O)NC(=O)CNC(=O)[C@H](CC(C)C)NC(=O)[C@@H](N)CC(C)C)C(=O)NCC(=O)N[C@@H](CCCCN)C(=O)N[C@@H](CCC(=O)O)C(=O)N[C@@H](Cc1ccccc1)C(=O)N[C@@H](CCCCN)C(=O)N[C@@H](CCCNC(=N)N)C(=O)N[C@H](C(=O)N[C@H](C(=O)N[C@@H](CCC(N)=O)C(=O)N[C@@H](CCCNC(=N)N)C(=O)N[C@H](C(=O)N[C@@H](CCCCN)C(=O)N[C@@H](CC(=O)O)C(=O)N[C@@H](Cc1ccccc1)C(=O)N[C@@H](CC(C)C)C(=O)N[C@@H](CCCNC(=N)N)C(=O)N[C@@H](CC(N)=O)C(=O)N[C@@H](CC(C)C)C(=O)N[C@H](C(=O)N1CCC[C@H]1C(=O)N[C@@H](CCCNC(=N)N)C(=O)N[C@H](C(=O)N[C@@H](CCC(=O)O)C(=O)N[C@@H](CO)C(=O)O)[C@@H](C)O)C(C)C)[C@@H](C)CC)C(C)C)[C@@H](C)CC [LL-37]
antimicrobial activity (in words) [1]: more potent than Vancomycin
percentage of bacteria testing positive for PI [1]: 31.9%
ultrastructural changes (TEM, in words) [2]: burst cells
percentage of bacteria testing positive for PI ([3]; 50 μg/ml, 30 minutes): 17.8%
percentage of bacteria testing positive for Syto-9 ([3]; 50 μg/ml, 30 minutes): 75.1%
ultrastructural changes (TEM, in words) [4]: dramatically reduced number of P. aeruginosa
antimicrobial activity (in words) [5, 8]: more potent than when treating bacteria with 7% isopropanol
decreased bacterial inoculum [5, 8]: ~75%
increased PI positivity ([5]; within the 30 minutes of treatment (FIG. 4 overview)): ~50%
antimicrobial activity in human plasma and serum (in words) [6]: retains antimicrobial activity
ultrastructural changes (TEM, in words) [7]: Signs of damage to the bacterial membrane

CN[C@H](CC(C)C)C(=O)N[C@H]1C(=O)N[C@@H](CC(N)=O)C(=O)N[C@H]2C(=O)N[C@H]3C(=O)N[C@H](C(=O)N[C@H](C(=O)O)c4cc(O)cc(O)c4-c4cc3ccc4O)[C@H](O)c3ccc(c(Cl)c3)Oc3cc2cc(c3O[C@@H]2O[C@H](CO)[C@@H](O)[C@H](O)[C@H]2O[C@H]2C[C@](C)(N)[C@H](O)[C@H](C)O2)Oc2ccc(cc2Cl)[C@H]1O [Vancomycin]
antimicrobial activity (in words) [1]: comparable to the one obtained for LL-37

CC(C)O [isopropanol]
percentage of bacteria testing positive for PI [3, 9]: 32.2%
percentage of bacteria testing positive for Syto-9 [3, 9]: 61.7%

Piperacillin/Tazobactam
percentage of bacteria testing positive for PI ([3]; 50 μg/ml, 30 minutes): 10%
percentage of bacteria testing positive for Syto-9 ([3]; 50 μg/ml, 30 minutes): 86.8%
antimicrobial activity (in words) [3, 8]: no antimicrobial activity
PI positivity ([5]; 50 μg/ml, 30 minutes): about 30%
antimicrobial activity (in words) [5, 8]: no antimicrobial activity
